PMC12175894 (Science Advances, 2025)
Changes are numbered by the printed parent chain. Read-outs that look alike come from different tables or passages of the source.

Assays:
[1] = tested on: male C56BL/6 mice; experiment: 50°C tail flick; format: in vivo, mouse; settings: 10 mg/kg i.p.
[2] = target: T1, 5-HT1AR F112^3.28W + M92^2.60F (Homo sapiens, UniProt P08908, F112W/M92F); experiment: β-arrestin 2 recruitment, enhanced bystander BRET in HEK293T with GRK2; format: cell-based; settings: HEK-293T; read-out: Emax [% ± SEM], β-arrestin 2 recruitment
T1 sequence (P08908 1-422 M92F/F112W): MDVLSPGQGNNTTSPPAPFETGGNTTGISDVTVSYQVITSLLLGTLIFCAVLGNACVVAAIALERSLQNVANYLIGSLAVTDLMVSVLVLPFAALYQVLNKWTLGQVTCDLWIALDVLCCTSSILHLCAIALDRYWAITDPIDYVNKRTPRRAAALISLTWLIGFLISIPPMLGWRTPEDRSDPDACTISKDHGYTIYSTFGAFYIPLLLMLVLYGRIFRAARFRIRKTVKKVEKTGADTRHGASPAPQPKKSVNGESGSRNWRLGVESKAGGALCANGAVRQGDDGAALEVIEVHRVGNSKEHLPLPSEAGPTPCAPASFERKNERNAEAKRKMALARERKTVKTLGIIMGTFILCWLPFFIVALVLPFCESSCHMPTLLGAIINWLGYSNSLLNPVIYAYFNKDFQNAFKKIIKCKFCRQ

[3] = target: T2, 5-HT1AR + GαoA (Homo sapiens, UniProt P08908); experiment: GloSensor cAMP in HEK293AΔGi/o co-transfected with GαoA; format: cell-based
T2 construct: host or cells: HEK293AΔGi/o
T2 sequence (P08908 whole entry): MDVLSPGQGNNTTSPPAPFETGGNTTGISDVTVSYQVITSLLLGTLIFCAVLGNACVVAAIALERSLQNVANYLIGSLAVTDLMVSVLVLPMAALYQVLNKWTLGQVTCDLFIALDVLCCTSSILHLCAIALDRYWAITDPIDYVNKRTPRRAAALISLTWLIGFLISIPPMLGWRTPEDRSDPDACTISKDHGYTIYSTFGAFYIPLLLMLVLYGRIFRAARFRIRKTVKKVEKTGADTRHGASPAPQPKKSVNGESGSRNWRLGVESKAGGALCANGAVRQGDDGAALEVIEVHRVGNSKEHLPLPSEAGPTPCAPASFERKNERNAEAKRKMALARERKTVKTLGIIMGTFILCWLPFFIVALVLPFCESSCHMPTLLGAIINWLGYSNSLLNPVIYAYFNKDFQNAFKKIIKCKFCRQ
T2 sequence (P09471 2-354 partner limits assumed): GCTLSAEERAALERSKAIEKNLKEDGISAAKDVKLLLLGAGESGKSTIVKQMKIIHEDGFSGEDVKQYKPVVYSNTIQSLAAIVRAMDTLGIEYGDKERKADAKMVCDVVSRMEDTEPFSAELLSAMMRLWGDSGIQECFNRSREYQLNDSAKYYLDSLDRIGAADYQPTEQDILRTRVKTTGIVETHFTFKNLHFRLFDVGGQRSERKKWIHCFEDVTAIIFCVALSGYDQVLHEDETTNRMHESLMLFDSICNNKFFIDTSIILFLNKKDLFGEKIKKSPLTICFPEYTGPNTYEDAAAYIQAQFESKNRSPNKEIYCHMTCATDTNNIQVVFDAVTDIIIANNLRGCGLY

[4] = target: T3, 5-HT1AR Y96^2.64A (Homo sapiens, UniProt P08908, Y96A); experiment: GloSensor inhibition of cAMP accumulation in HEK293AΔGs; format: cell-based; settings: for Emax: read-out: Emax [% ± SEM], inhibition of cAMP accumulation
T3 sequence (P08908 1-422 Y96A): T1 sequence (P08908 1-422 M92F/F112W) with F92M, Y96A, W112F

[5] = tested on: male C56BL/6 mice; experiment: 52°C hot plate; format: in vivo, mouse; settings: wild-type mice, 10 mg/kg
[6] = target: T1, 5-HT1AR F112^3.28W + M92^2.60F; experiment: GloSensor inhibition of cAMP accumulation in HEK293AΔGs; format: cell-based; settings: for Emax: read-out: Emax [% ± SEM], inhibition of cAMP accumulation
[7] = target: T3, 5-HT1AR Y96^2.64A; experiment: GloSensor cAMP accumulation in HEK293AΔGi/o; format: cell-based; settings: read-out: Emax [% ± SEM], cAMP accumulation
[8] = target: T4, 5-HT6R (Homo sapiens, UniProt P50406); experiment: Radioligand competition, displacement of [3H]LSD; format: binding
T4 construct: host or cells: HEK293T, transient; membranes
T4 sequence (P50406 whole entry): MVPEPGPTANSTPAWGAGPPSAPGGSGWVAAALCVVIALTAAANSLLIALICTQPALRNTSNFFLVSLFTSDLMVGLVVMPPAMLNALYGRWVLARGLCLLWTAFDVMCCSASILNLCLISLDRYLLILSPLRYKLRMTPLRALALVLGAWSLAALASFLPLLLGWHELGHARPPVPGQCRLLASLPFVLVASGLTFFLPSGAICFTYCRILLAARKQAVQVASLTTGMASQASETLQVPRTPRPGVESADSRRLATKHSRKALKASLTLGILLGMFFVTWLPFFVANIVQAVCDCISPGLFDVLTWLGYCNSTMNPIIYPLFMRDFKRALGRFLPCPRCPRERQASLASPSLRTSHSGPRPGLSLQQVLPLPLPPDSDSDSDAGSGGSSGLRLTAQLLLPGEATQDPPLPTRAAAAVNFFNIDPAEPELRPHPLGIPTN

[9] = target: T5, 5-HT1AR + Gαz (Homo sapiens, UniProt P08908); experiment: GloSensor cAMP in HEK293AΔGi/o co-transfected with Gαz; format: cell-based
T5 construct: host or cells: HEK293AΔGi/o
T5 sequence (P08908 whole entry): as the sequence (P08908 whole entry) above
T5 sequence (P19086 2-355 partner limits assumed): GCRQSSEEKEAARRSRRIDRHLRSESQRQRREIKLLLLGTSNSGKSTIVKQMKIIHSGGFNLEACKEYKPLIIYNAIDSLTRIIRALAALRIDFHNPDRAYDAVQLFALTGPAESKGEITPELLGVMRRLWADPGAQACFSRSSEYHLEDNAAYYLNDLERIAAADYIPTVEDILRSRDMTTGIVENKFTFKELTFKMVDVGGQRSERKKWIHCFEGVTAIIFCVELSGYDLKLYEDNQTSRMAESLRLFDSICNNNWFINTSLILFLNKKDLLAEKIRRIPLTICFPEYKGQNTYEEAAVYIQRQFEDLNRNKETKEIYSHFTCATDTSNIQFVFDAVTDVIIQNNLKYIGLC

[10] = target: T6, 5-HT1AR wildtype (Homo sapiens, UniProt P08908); experiment: GloSensor cAMP assay in HEK293A cells; format: cell-based
T6 construct: host or cells: HEK293T, HEK293A, HEK293AΔGs, HEK293AΔGi/o, HEK293AΔARRB1/B2
T6 sequence (P08908 1-422): T1 sequence (P08908 1-422 M92F/F112W) with F92M, W112F

[11] = target: T7, 5-HT1AR F112^3.28W (Homo sapiens, UniProt P08908, F112W); experiment: GloSensor cAMP assay in HEK293A cells; format: cell-based
T7 sequence (P08908 1-422 F112W): T1 sequence (P08908 1-422 M92F/F112W) with F92M

[12] = target: T6, 5-HT1AR wildtype; experiment: β-arrestin 2 recruitment, enhanced bystander BRET in HEK293T with GRK2; format: cell-based; settings: HEK-293T; read-out: Emax [% ± SEM], β-arrestin 2 recruitment
[13] = tested on: male C56BL/6 mice; experiment: von Frey assay, hind paw mechanical thresholds; format: in vivo, mouse; settings: 10 mg/kg i.p., 30 min after injection
[14] = tested on: male C56BL/6 mice; experiment: SNI model of neuropathic pain; format: in vivo, mouse
[15] = HEK293-A, read-out: Emax [%±SEM], inhibition of cAMP accumulation
[16] = HEK293-A; read-out: Emax [%±SEM], inhibition of cAMP accumulation

Structure (SMILES) | response latency, 50°C tail flick [1] | Emax [2] [%] | Emax [3] [%] | Emax [4] [%] | response latency, 52°C hot plate [5] | Emax [6] [%] | Emax [7] [%] | Emax [9] [%] | Emax [12] [%] | mechanical thresholds, von Frey [13] | other results
COc1ccccc1OCCNCCCOc1ccc2c(c1)NC(=O)CO2 [ST171] | antinociceptive | < 5 | 100 | 76 ± 2 | antinociceptive | 85 ± 11 | < 5 | 93 | < 5 | significantly increasing mechanical thresholds | EC50 ([3]; HEK293AΔGi/o + GαoA, read-out: EC50 [nM ± SEM], inhibition of cAMP accumulation): 4.1 ± 1 nM; EC50 ([4]; HEK293AΔGs, Y96A, read-out: EC50 [nM ± SEM], inhibition of cAMP accumulation): 14 ± 3.5 nM; EC50 ([6]; HEK293AΔGs, F112W + M92F, read-out: EC50 [nM ± SEM], inhibition of cAMP accumulation): 1.8 ± 0.6 nM; Ki ([8]; 5-HT6, read-out: pKi (converted)): 3080 nM; Ki ([8]; 5-HT6R, HEK 293T membranes, read-out: Ki [nM ± SEM]): 3300 ± 300 nM; Emax [10, 15]: 86 ± 5%; EC50 ([10]; HEK293A, GloSensor, wildtype; read-out: EC50 left [nM±SEM], inhibition of cAMP accumulation): 3.4 ± 0.8 nM; Emax [11, 15]: 77 ± 9%; EC50 ([11]; HEK293A, GloSensor, F112W; read-out: EC50 left [nM±SEM], inhibition of cAMP accumulation): 1.7 ± 0.5 nM; mechanical thresholds of the injured hind paw, SNI model ([14]; 10 mg/kg intraperitoneal): significantly increased the mechanical thresholds
Cc1ccc(CNCC2(F)CCN(C(=O)c3ccc(F)c(Cl)c3)CC2)nc1 [befiradol, reference compound] | antinociceptive | 83 ± 4 | 107 ± 3 | 104 ± 5 | antinociceptive | 99 ± 7 | 69 ± 5 | 95 ± 2 | 79 ± 1 | significantly increasing mechanical thresholds | Ki [8]: > 50000 nM; Emax [10, 16]: 93 ± 2%; Esat [%±SEM] ([10]; HEK293A, GloSensor, wildtype): 75 ± 3%; Emax [11, 16]: 96 ± 4%; Esat [%±SEM] ([11]; HEK293A, GloSensor, F112W): 90 ± 4%; mechanical allodynia, neuropathic pain model ([14]; lower, nonsedating doses (1 mg/kg)): did not reverse the mechanical allodynia
